Experimental data from patent publication US20150064724A1, “BIOMARKERS FOR PROGNOSES OF PULMONARY DISEASES” (University of Pittsburgh - of the Commonwealth System of …, priority 2009, published 2015).

System: CD4+CD28null T cells from lung transplant recipients with BOS
Experiment: Inhibition of proliferation by cyclosporine A (BrdU incorporation, flow cytometry)
Format: cell-based, human
Details: preliminary findings, n=2 subjects; compared with CD4+CD28+ cells
Description: Segregated CD28+ and CD28null CD4 T-cell subpopulations were individually cultured in duplicate wells coated with anti-CD3 monoclonal antibody (OKT3) (see above). Autologous nurse cells, positively selected during the initial CD4 T-cell isolations (see above) were added in a 3:1 nurse cell:CD4 T-cell ratio. In order to eliminate potential confounding by CD4dim monocytes, all CD4+ cells were depleted from the nurse cells (<<1% residual), prior to their use in cultures, by positive selection with anti-CD4-coated magnetic beads (Invitrogen, Carlsbad, Calif.). Cyclosporine (Novartis, East Hanover, N.J.) to a final concentration of 100 ng/ml was added to half the wells. Proliferation within the respective CD4 subpopulations were measured by bromodeoxyuridine (BrdU) incorporation, using reagents and methods supplied in a kit (BD Pharmingen). In brief, BrdU in a final concentration of 10 μM was added to cultures two days prior to their harvests. After 5±1 days of culture, cells were harvested from wells and stained with anti-CD4, fixed and permeabilized, and then incubated with anti-BrdU and 7-amino-actinomycin (7-AAD). The proportion of proliferating CD4+ T cells (BrdU+) among the viable cells (≧diploid DNA content) was determined by flow cytometry.

Compound: C=CC[C@@H]1/C=C(\C)C[C@H](C)C[C@H](OC)[C@H]2O[C@@](O)(C(=O)C(=O)N3CCCC[C@H]3C(=O)O[C@H](/C(C)=C/[C@@H]3CC[C@@H](O)[C@H](OC)C3)[C@H](C)[C@@H](O)CC1=O)[C@H](C)C[C@@H]2OC [tacrolimus]
- resistance of CD4+CD28null T cells to the drug: relatively resistant
